Results reported in PMC5147970 (Biochemistry, 2015).
Several values for one entry are separate records, joined by “and”; a condition that tells them apart may be missing. Identical values can stand only once.

Columns and labels:
[1] = target: T1, R67 dihydrofolate reductase (R67 DHFR) (Escherichia coli, UniProt P00383); assay: steady-state DHFR inhibition, Lineweaver–Burk slope replot; assay type: biochemical
T1 sequence (P00383 1-78): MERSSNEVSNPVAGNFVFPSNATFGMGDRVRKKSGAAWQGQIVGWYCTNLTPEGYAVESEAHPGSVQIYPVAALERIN

[2] = target: T2, R67 dihydrofolate reductase (K33M) (Escherichia coli, UniProt P00383, K33M); assay: folate reduction kinetics; assay type: biochemical
T2 sequence (P00383 4-78 K33M): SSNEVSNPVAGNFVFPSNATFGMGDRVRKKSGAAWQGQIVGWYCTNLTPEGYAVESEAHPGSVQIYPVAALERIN

[3] = target: T1, R67 dihydrofolate reductase (R67 DHFR); assay: steady-state DHFR inhibition vs DHF; assay type: biochemical
[4] = target: chymotrypsin-truncated R67 dihydrofolate reductase; assay: AUC
[5] = target: chymotrypsin-truncated R67 dihydrofolate reductase cross-linked to folate with EDC; assay: AUC

Compound: NCCNC(=O)CC[C@H](NC(=O)c1ccc(NCc2cnc3nc(N)[nH]c(=O)c3n2)cc1)C(=O)NCCN [bis-EDA–folate]
- Ki [1]: 140 ± 15 µM

Compound: Nc1nc(=O)c2nc(CNc3ccc(C(=O)N[C@@H](CCC(=O)O)C(=O)O)cc3)cnc2[nH]1 [folate]
- folate reduction kinetics (kcat) and EDC cross-linking inactivation [2]: 0.065 ± 0.017 min^–1
- Ki [3]: 16 ± 3 µM

Compound: chymotrypsin-truncated R67 dihydrofolate reductase (enzyme)
- stoichiometry N [4]: 4 and 2

Compound: chymotrypsin-truncated R67 dihydrofolate reductase cross-linked to folate with EDC (enzyme)
- stoichiometry N [5]: 4
